From ChEMBL document CHEMBL1201862, “PubChem BioAssay data set” (2004)
Activity calls are given as the source filed them.

Tests used:
[1] = molecular target: Heat shock protein HSP 90-alpha (Homo sapiens, UniProt P07900); format: functional, organism-based
[2] = ATP-based viability loss in HeLa cells – cell-based, CellTiter-Glo luminescence, dry powder, set 2, cytotoxicity control, dose response (AID 720593); format: functional
[3] = ATP-based viability loss in HEK293T cells – cell-based, CellTiter-Glo luminescence, dry powder, set 2, cytotoxicity control, dose response (AID 720595); format: functional; details: HEK293
[4] = fluconazole-exposed Candida albicans growth modulators – fluorescence, retest, confirmation (AID 2467); format: functional, cell-based
[5] = NIH-3T3 fibroblast cytotoxicity, dose response, cytotoxicity control, cell-based, fluorescence, Alamar Blue, secondary assay (AID 2327); format: functional;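 note: NIH-3T3 mouse fibroblasts cultured with fluconazole at 8 µg/mL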
Albumin = Albumin (Bos taurus, UniProt P02769); assay: Counterscreen for inhibitors of T-cell receptor (TCR)-CD3 interaction: Fluorescence-based biochemical high throughput dose response assay to identify inhibitors of T-cell receptor (TCR)-CD3 interaction using a TAMRA-labeled BSA probe.; format: functional
[6] = Luminescence Cell-Based Dose Response HTS to Identify Activators of Luciferase Translation or Activity in H4 […] Cells. [Related pubchem assays: 1829 (Project Summary), 1814 (Primary HTS)]; format: functional
[7] = toxicity toward HEK293 cells – cell-based, dry powder samples, cytotoxicity control, dose response (AID 720567); format: functional
[8] = Luminescence Cell-Based Dose Confirmation HTS to Identify Activators of 5'UTR Stem-Loop Driven Alpha-Synuclein mRNA Translation in H4 Neuroglioblastoma Cells. [Related pubchem assays: 1829 (Project Summary), 1814 (Primary HTS)]; format: functional
H4 = assay: Luminescence Cell-Based Dose Response HTS to Identify Activators of 5'UTR Stem-Loop Driven Prion Protein mRNA Translation in H4 Neuroglioblastoma Cells. [Related pubchem assays: 1829 (Project Summary), 1814 (Primary HTS)]; format: functional; details: Homo sapiens
A549 = assay: viability loss in A549 cells – cell-based, plate reader, cherry-pick samples, cytotoxicity control, dose response (AID 687028); format: functional; details: Homo sapiens
[9] = molecular target: T1, Corticotropin-releasing factor receptor 2/Corticotropin-releasing factor-binding protein (Homo sapiens, UniProt P24387+Q13324); assay: activators of CRF receptor 2 with binding protein – uHTS hits, confirmation (AID 602473); format: functional; details: read-out: EC50_Mean
T1 sequence (Q13324 whole entry): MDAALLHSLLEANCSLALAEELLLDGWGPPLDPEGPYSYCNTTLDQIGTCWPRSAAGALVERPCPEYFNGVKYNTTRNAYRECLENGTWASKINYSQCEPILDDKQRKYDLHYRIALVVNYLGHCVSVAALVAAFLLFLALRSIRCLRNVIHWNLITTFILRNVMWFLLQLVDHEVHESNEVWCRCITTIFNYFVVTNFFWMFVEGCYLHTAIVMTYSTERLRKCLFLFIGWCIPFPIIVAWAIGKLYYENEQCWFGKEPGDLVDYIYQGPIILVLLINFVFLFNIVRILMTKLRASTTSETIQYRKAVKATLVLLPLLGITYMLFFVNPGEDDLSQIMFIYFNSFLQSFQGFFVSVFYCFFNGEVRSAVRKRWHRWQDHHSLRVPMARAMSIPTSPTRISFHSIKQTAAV
T1 sequence (P24387 whole entry): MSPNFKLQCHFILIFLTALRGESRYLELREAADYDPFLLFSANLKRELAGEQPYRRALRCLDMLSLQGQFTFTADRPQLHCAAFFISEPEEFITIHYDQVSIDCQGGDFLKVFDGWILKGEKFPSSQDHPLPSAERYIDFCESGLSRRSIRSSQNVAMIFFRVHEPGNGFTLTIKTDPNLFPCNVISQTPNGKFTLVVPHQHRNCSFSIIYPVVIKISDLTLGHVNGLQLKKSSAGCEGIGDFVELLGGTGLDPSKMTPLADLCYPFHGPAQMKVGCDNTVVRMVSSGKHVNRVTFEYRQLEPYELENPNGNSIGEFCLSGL

[10] = molecular target: T1, Corticotropin-releasing factor receptor 2/Corticotropin-releasing factor-binding protein; assay: Dose Response confirmation of uHTS hits for small molecule antagonists of the CRF-binding protein and CRF-R2 receptor complex.; format: functional; details: read-out: IC50_Mean
[11] = blockers of CRF-binding protein–CRF-R2 complex – cell-based, uHTS hits, 384-well, dose response (AID 651639); format: functional, Homo sapiens; details: read-out: IC50_Mean
Beta-lactamase [12] = molecular target: Beta-lactamase (Salmonella choleraesuis (strain SC-B67), UniProt Q5J463); assay: Epi-absorbance-based counterscreen for selective VIM-2 inhibitors: dose response biochemical high throughput screening assay to identify inhibitors of TEM-1 serine-beta-lactamase.
Beta-lactamase [13] = molecular target: T2, Beta-lactamase (Pseudomonas aeruginosa, UniProt Q79MP6); assay: inhibition of IMP-1 beta-lactamase activity – biochemical, epi-absorbance, selectivity assay for VIM-2 inhibitor project, dose response (AID 1920)
Beta-lactamase [14] = molecular target: T2, Beta-lactamase; assay: […] counterscreen for selective VIM-2 inhibitors: dose response biochemical high throughput screening assay to identify inhibitors of IMP-1 metallo-beta-lactamase.
Major prion protein = Major prion protein (Homo sapiens, UniProt P04156); format: functional, cell-based
[15] = Luminescence Cell-Based Dose Response to Identify Activators of Luciferase Translation or Activity in H4-C Neuroglioblastoma Cells. [Related pubchem assays: 1829 (Project Summary), 1814 (Primary HTS)]; format: functional
[16] = Luminescence Cell-Based Dose Confirmation to Identify Activators of 5'UTR Stem-Loop Driven Alpha-Synuclein mRNA Translation in H4 Neuroglioblastoma Cells. [Related pubchem assays: 1829 (Project Summary), 1814 (Primary HTS)]; format: functional
[17] = molecular target: Fructose-bisphosphate aldolase (Mycobacterium tuberculosis, UniProt P9WQA3); assay: Fluorescence-based biochemical high throughput dose response assay for inhibitors of the fructose-bisphosphate aldolase (FBA) of M. tuberculosis.; format: functional
Cysteine protease ATG4B = molecular target: T3, Cysteine protease ATG4B (Homo sapiens, UniProt Q9Y4P1); format: functional;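 note: Fluorescence-based dose-response confirmation assay measuring inhibition of ATG4B activity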
T3 sequence (Q9Y4P1 whole entry): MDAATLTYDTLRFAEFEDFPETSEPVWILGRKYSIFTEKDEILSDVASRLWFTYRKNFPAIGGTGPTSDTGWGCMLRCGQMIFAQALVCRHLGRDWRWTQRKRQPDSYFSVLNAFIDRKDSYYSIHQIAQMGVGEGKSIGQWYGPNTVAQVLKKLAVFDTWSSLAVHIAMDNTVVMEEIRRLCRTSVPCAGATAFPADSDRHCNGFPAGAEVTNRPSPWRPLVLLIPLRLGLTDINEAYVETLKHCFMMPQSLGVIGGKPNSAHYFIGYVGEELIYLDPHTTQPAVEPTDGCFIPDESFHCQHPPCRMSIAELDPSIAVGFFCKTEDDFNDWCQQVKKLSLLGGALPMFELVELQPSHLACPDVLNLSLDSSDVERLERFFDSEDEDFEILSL

Phospholipase A2 = Phospholipase A2 (Homo sapiens, UniProt P04054); format: functional;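 note: confirmatory dose-response counterscreen on phospholipase A2, testing hits that came from an ultra-high-throughput screen for ATG4B inhibitors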
Protein skinhead-1 = molecular target: T4, Protein skinhead-1 (Caenorhabditis elegans, UniProt P34707); format: functional
T4 sequence (P34707 whole entry): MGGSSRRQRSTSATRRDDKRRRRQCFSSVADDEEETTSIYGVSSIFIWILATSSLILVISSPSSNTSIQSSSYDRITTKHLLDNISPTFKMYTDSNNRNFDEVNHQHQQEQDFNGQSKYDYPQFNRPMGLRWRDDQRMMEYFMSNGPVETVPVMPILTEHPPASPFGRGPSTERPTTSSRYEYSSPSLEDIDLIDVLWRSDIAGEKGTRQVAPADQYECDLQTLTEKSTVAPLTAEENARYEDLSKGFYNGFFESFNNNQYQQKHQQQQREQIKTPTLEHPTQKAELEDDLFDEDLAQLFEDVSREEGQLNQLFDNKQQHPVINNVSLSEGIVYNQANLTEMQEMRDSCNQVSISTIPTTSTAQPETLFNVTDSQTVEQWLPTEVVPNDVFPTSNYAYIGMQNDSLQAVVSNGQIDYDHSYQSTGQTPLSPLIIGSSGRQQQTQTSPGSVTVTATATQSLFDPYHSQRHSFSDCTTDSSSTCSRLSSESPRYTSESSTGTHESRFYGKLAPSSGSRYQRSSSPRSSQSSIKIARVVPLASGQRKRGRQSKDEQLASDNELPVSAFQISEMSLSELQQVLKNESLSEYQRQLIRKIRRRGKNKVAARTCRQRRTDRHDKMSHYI

[18] = Luminescence Cell-Based Dose Response to Identify Activators of 5'UTR Stem-Loop Driven Prion Protein mRNA Translation in H4-C Neuroglioblastoma Cells. [Related pubchem assays: 1829 (Project Summary), 1814 (Primary HTS)]; format: functional

O=C(CSc1ccc(-c2ccccn2)nn1)Nc1ccccc1
AC50 [1]: 35.3 µM (active)
AC50 [2]: > 52 µM (inactive)
AC50 [3]: 25.8 µM (active)

COc1ccc(NC(=O)NNC(=O)c2cc3ccccc3cc2O)cc1
EC50 [4]: > 38 µM (not active)
EC50 [5]: > 160 µM (inactive)
IC50 (Albumin): > 94.1 µM (inactive)

COC(=O)c1cn(C(=O)c2ccc(OC)cc2)c2ccccc12
EC50 [6]: 9.72 µM (active)
AC50 [7]: > 30 µM (inactive)
EC50 [8]: > 120 µM (not active)
EC50 (H4): > 120 µM (not active)

C[C@]1(C(=O)NCCc2c[nH]c3ccccc23)C=C[C@@H](Cc2ccccc2)N1C(=O)c1ccccc1
AC50 (A549): 20.6 µM (active)

Oc1nc(SCc2nnc(S)n2-c2ccccc2)nc2sc3c(c12)CCC3
EC50 [9]: > 53 µM (inactive)
IC50 [10]: 13.5 µM (active)
IC50 [11]: 6.63 µM (active)
IC50 (Beta-lactamase [12]): > 59.6 µM (inactive)
IC50 (Beta-lactamase [13]): > 59.6 µM (inactive)
IC50 (Beta-lactamase [14]): > 59.6 µM (inactive)

Cc1cccc2c(=O)c(-c3ccc4c(c3)OCO4)c(NC(=O)c3ccco3)oc12
IC50 (Major prion protein): 9.57 µM (active)
IC50 (cells): > 138 µM (inactive)

COc1ccc2c(c1OC)C(=O)OC2Nc1nc(-c2ccc(-c3ccccc3)cc2)cs1 (configuration not stated)
EC50 [15]: 0.284 µM (active)
EC50 [16]: 0.396 µM (active)
IC50 [17]: 6.08 µM (active)
IC50 (Cysteine protease ATG4B): 8.28 µM (active)
EC50 [6]: < 0.1 µM (active)
IC50 (Phospholipase A2): 17.1 µM (active)
IC50 (Protein skinhead-1): 18.7 µM (active)
EC50 [18]: 0.254 µM (active)
